Test results: patent US10702526B2, “Inhibitors of immune checkpoint modulators and related methods” (eFFECTOR Therapeutics, Inc., priority 2015, dated 2020)
“Also recorded” adds a separate entry of the source.

Key:
[1] = tested on: PD-1 expression on Jurkat cells; assay: PD-1 expression on PHA/PMA-activated Jurkat T cells (flow cytometry); format: cell-based, human
Description: (§1) To examine the effect of MNK-specific inhibitors on PD-1 expression, Jurkat cells (Clone E6.1, ATCC, transformed T cells) were used, which express PD-1 when activated through T cell receptor (TCR) signaling. Briefly, Jurkat cells were grown in 1×RPMI with 1× Pen/Strep, and 10% FBS, then about 3×10^6 Jurkat cells were activated in presence of 1 μg/mL PHA (Sigma) and 50 ng/mL PMA (Sigma). Test Cells were treated simultaneously with various concentrations of MNK-specific inhibitor Compound 107 (0, 0.01, 0.1, 1, 3 and 10 μM). After 48 hours, culture supernatants were harvested and examined via sandwich ELISA for the presence of IL-2 using human IL-2 ELISA DuoSet® (R&D Systems, Minneapolis, Minn.). The level of PD-1 on Jurkat cells was examined by incubating cells with fixable dead cell stain (1:20,000; BD Biosciences, San Jose, Calif.) for 15 minutes at 4° C., washed twice with flow staining buffer (1×PBS, 4% FBS and 1 mM EDTA), incubated with human FcR block, then contacted with allophycocyanin (APC) conjugated anti-PD-1 antibody (Biolegend, San Diego, Calif.) for 30 minutes at 4° C., washed two times with flow buffer, and finally cells were fixed with fixation buffer for 20 minutes at 4° C. After fixation, cells were washed twice with flow buffer and re-suspended in flow buffer and assessed for fluorescence using BD Accuri C6 flow cytometer. Data were analyzed using the C6 cytometer software (BD Biosciences, San Jose, Calif.).

[2] = tested on: IL-2 production in Jurkat T cells; assay: IL-2 ELISA on supernatants of activated Jurkat T cells; format: cell-based, human; details: Jurkat T cells with PHA and PMA, 48 hours
Description: as §1, with “The level of PD-1 on Jurkat cells was examined by incubating cells with fixable dead cell stain (1:20,000; BD Biosciences, San Jose, Calif.) for 15 minutes at 4° C., washed twice with flow staining buffer (1×PBS, 4% FBS and 1 mM EDTA), incubated with human FcR block, then contacted with allophycocyanin (APC) conjugated anti-PD-1 antibody (Biolegend, San Diego, Calif.) for 30 minutes at 4° C., washed two times with flow buffer, and finally cells were fixed with fixation buffer for 20 minutes at 4° C.” left out

[3] = tested on: Jurkat cells; assay: Jurkat T cell viability (fixable dead cell stain); format: cell-based
Description: as §1

[4] = tested on: PD-1 expression on human Pan-T cells; assay: PD-1 expression on primary T cells activated with anti-CD3/anti-CD28 beads (flow cytometry); format: cell-based
Description: (§2) About 3×10^5 T cells were activated using anti-CD3/anti-CD28 magnetic beads as per manufacturer's protocol (Dynabeads®, Invitrogen, Carlsbad, Calif.). Briefly, a ratio of fresh primary T cells to beads used to activate the T cells was 1:1 (for every 80,000 T cells, 2 μl of beads were added). Test cells were treated simultaneously with various concentrations of MNK-specific inhibitor Compound 107 (0.01, 0.1, 1, 3 and 10 μM). After 48 hours, culture supernatants were harvested and examined via sandwich ELISA for the presence of IL-2 using human IL-2 ELISA DuoSet® (R&D Systems, Minneapolis, Minn.). […] After fixation, cells were washed twice with flow buffer and re-suspended in flow buffer and assessed for fluorescence using BD Accuri C6 cytometer. Data were analyzed using the C6 cytometer software (BD Biosciences, San Jose, Calif.).

[5] = tested on: LAG3 expression on human Pan-T cells; assay: LAG3 expression on primary T cells activated with anti-CD3/anti-CD28 beads (flow cytometry); format: cell-based
Description: as §2

[6] = tested on: IL-2 production in primary T cells; assay: IL-2 ELISA on supernatants of activated primary T cells; format: cell-based, human; details: T cells activated with anti-CD3/anti-CD28 beads
Description: as §2

[7] = tested on: primary T cells; assay: Primary T cell viability (fixable dead cell stain); format: cell-based; details: T cells activated with anti-CD3/anti-CD28 beads
Description: as §2

[8] = tested on: T effector (CD3+/CD8+) and T regulatory (CD4+/FOXP3+) cells; assay: TE:Treg ratio in tumor infiltrating lymphocytes of CT26 allograft tumors (flow cytometry); format: in vivo, mouse; details: TILs after 4 days of treatment
Description: Mice having established CT26 tumors (100-200 mm^3) were treated with compound 107, anti-PD1 antibody or a combination of compound 107 and anti-PD-1 antibody, as described in Example 4. After 4 days of treatment, the mice were euthanized and tumors were excised. A single cell suspension was generated by dissecting excised tumors into fine pieces with a razor blade, incubating with collagenase, hyaluronidase and DNAse I (Worthington Biochemical, Lakewood N.J.) in RPMI, incubating in 1× trypsin-EDTA, and finally passaging through a 70 micron cell strainer filter (BD Biosciences, San Jose Calif.). […] For samples assessed for CD45/CD3/CD8, cells were washed twice with flow buffer and incubated with fixation buffer for 10 minutes at 4° C. […] Samples assessed for CD45/CD4 were further processed for intracellular staining of FOXP3 using an anti-FOXP3 antibody (FOXP3-PE, BD Biosciences) and the FOXP3/Transcription Factor staining buffer set (eBiosciences, San Diego Calif.) following the manufacturer's protocol. […] Data were collected and analyzed using a BD Accuri C6 flow cytometer (BD Biosciences, San Jose Calif.). The ratio of TE to Treg cells was calculated by determining the percentage of CD3^+/CD8^+ cells present in the CD45^+ lymphocyte population and dividing by the percentage of CD4^+/FOXP3^+ present from the same population.

[9] = Jurkat T cell assay, MNK-specific inhibitors
[10] = primary T cells, anti-CD3/anti-CD28 beads, 0.01-10 μM

Cc1cc(Nc2cc(N)ncn2)c(=O)n2c1C(=O)NC21CCCCC1.Cl [Compound 107]
% PD-1 + Inhibition [1, 9]: +++ (+++ = 50-75%) | PD-1 expression ([1]; Jurkat cells with PHA and PMA, 0.01, 0.1, 1, 3 and 10 μM): reduced in a dose dependent manner | reduction in the expression of PD-1 as compared to control ([1]; PHA/PMA activated Jurkat T cells, highest concentration, 48 hours): ≤ 50% | IL-2 production [2]: did not alter cytokine production; also recorded: did not detectably alter IL-2 production | Cell Death [3, 9]: − (− = 0-10%) | cell viability (percentage of dead cells) ([3]; Jurkat cells with PHA and PMA): no effect on cell viability; also recorded: unaffected | maximum inhibition of PD-1 expression ([4]; T cells activated with anti-CD3/anti-CD28 beads, 10 μM, 48 hours): 76% | PD-1 expression [4, 10]: reduced in a dose dependent manner | reduction in the expression of LAG3 ([5]; CD3/CD28 antibody bead activated T cells, 10 μM): 62% | LAG3 expression [5, 10]: reduced in a dose dependent manner | IL-2 production [6]: did not detectably alter IL-2 production | T cell viability (percentage of dead cells) [7]: no effect on T cell viability; also recorded: unaffected | average TE:Treg ratio [8]: 9.7
